{"source": "patent US20230047788A1", "about": "“COMPOSITIONS COMPRISING 5-CHOLESTEN-3, 25-DIOL, 3-SULFATE (25HC3S) OR PHARMACEUTICALLY ACCEPTABLE SALT THEREOF AND AT LEAST ONE CYCLIC OLIGOSACCHARIDE” (Virginia Commonwealth University, priority 2016, published 2023)", "key": {"[1]": {"assay": "Solubility of 25HC3S in alpha-, beta- and gamma-cyclodextrin, 10 mM phosphate buffer pH 7.4", "assay_type": "physicochemical", "conditions": "for repeated solubility of 25HC3S: repeated experiment", "description": "The solubility of 25HC3S at ambient room temperature for one day in 5 and 10% (w/v) alpha cyclodextrin (α-CD), 1% (w/v) beta cyclodextrin (β-CD) and 5 and 10% (w/v) gamma cyclodextrin (γ-CD), each containing 10 mM phosphate buffer at pH 7.4 was determined by an HPLC method.\nα-CD, β-CD and γ-CD were used in the study. Sodium phosphate monobasic, monohydrate and sodium phosphate, dibasic, anhydrous were used to prepare 10 mM phosphate buffer at pH 7.4.\nApproximately 30 to 50 mg of 25HC3S was weighed into a 20 mL vial (5 vials total, one vial for each vehicle). Approximately 8 mL each of 5 and 10% (w/v) α-CD, 1% (w/v) β-CD, and 5 and 10% (w/v) γ-CD containing 10 mM phosphate buffer at pH 7.4 was added to each vial, respectively. The samples were sonicated and vortexed to disperse the drug. The drug suspensions in these 5 vials were stirred at 500 rpm at ambient RT (20.0-22.2° C.). On day 1, approximately 1.2 mL each of the suspensions was transferred into 2 mL conical vials (a total of 5 vials for each suspension) and centrifuged at 12,000 rpm for 10 min. Approximately 1 mL of the supernatant from each suspension (prior to filtration) was used for HPLC analysis. The supernatants for the rest of the vials from the same suspension were combined together and filtered through […], 13 mm in diameter Acrodisk syringe filter with Nylon membrane. The first 2-mL of filtrate was discarded. The next 2 consecutive filtrates of 0.5-0.7 mL each were collected into HPLC vials for analysis."}, "[2]": {"conditions": "human, in vivo", "procedure": "This example describes a randomized, double-blind, placebo-controlled, safety and pharmacokinetic study of a parenteral formulation of 25HC3S. The study involved the administration of 25HC3S sodium salt to healthy subjects via intramuscular injections (IM) as i) single ascending doses (SAD) in the range of 30-300 mg and as ii) a multiple ascending dose (MAD) study using multiple IM doses of 150 mg administered daily for 5 days (see Table 13). All subjects were male, with an age range of 19-36 years.\nIn Part A of the study (SAD), a parenteral dose of 25HC3S or matching placebo was administered intramuscularly (IM) to cohorts of 6 healthy subjects (4 randomized to 25HC3S and two randomized to matching placebo on a double-blind basis). The initial dose was 30 mg and subsequent cohorts of 6 different subjects received doses of 90, 150, and 300 mg of 25HC3S. A total of 16 subjects received 25HC3S and 8 received placebo in Part A. In Part B (MAD), a parenteral dose of 150 mg 25HC3S or matching placebo was administered IM once daily for 5 days, altering injection sites, to a single cohort of 10 healthy subjects (8 randomized to 25HC3S and two randomized to matching placebo on a double-blind basis; see Table 14).\nSafety assessments included periodic monitoring of routine vital signs, safety laboratory tests and 12 lead ECG collection. Subjects completed a screening phase, treatment and an end-of-study visit. Dose escalation to the next dose level in Part I and Part II of the study was undertaken following review of the preceding dose results.\nPain intensity (measured on a 0-10 numeric rating scale) was assessed after each injection, and the injection sites were examined for tenderness, redness, bruising, swelling and induration at specified time points after injection."}, "[3]": {"assay": "Solubility of 25HC3S in 10 mM sodium phosphate buffer pH 7.6 with HPbCD at 5, 15 and 25°C", "assay_type": "physicochemical", "description": "A total of five suspensions of 25HC3S were prepared in 10 mM sodium phosphate buffer at pH 7.6 containing 0, 50, 100, 250 and 400 mg/mL HPbCD. The suspensions were initially sonicated and then stirred. Each suspension (40 mL for the suspension without HPbCD and 20 mL for the remaining suspensions) was then equally divided into 3 vials and stored in 5° C., 15° C. and 25° C./60% relative humidity (RH) stability chambers.\nEach suspension was stirred constantly in the stability chambers by a small spin bar and electronic stirrer. At day 1 and day 3, half of each suspension (approximately 6 mL for the sample without HPbCD and 3 mL for the rest of the suspensions with HPbCD) was withdrawn from the vial with a 3 or 5 mL disposable syringe. A syringe filter was then attached to the syringe for filtration of the suspensions. To minimize sample temperature changes during filtration, the syringe and filter were equilibrated at the respective stability chamber temperatures before their use. Approximately 3 mL of the filtrate for the sample without HPbCD and 1 mL of the filtrate for the remaining suspensions in HPbCD were discarded to ensure that the filter membrane was sufficiently saturated with 25HC3S to prevent absorption of the drug from the remaining filtrate. Then approximately 0.5 mL to 1.5 mL of filtrate was collected for HPLC analysis. At day 3, the remaining filtered portions were measured for pH. Reverse phase HPLC was used for measuring the concentration of 25HC3S in the solubility samples."}}, "note": "“And” between values parts separate entries of the source, which are not always exact repeats. Equal entries are not always repeated."}
{"smiles": "C[C@H](CCCC(C)(C)O)[C@H]1CC[C@H]2[C@@H]3CC=C4C[C@@H](OS(=O)(=O)[O-])CC[C@]4(C)[C@H]3CC[C@]12C.[Na+]", "note": "[25HC3S, 5-cholesten-3, 25-diol, 3-sulfate]", "values": [{"measurement": "25HC3S Solubility", "setting": "[1]; 0 cyclodextrin, 10 mM phosphate pH 7.4, room temperature", "value": "6 μg/mL and 0.012 mM"}, {"measurement": "25HC3S Solubility", "setting": "[1]; 1% (w/v) beta-CD", "value": 4.314, "unit": "mM"}, {"measurement": "Complexation with CD", "setting": "[1]; 1% (w/v) beta-CD", "value": "yes"}, {"measurement": "Ratio of CD/25HC3S", "setting": "[1]; 1% (w/v) beta-CD", "value": 2, "unit": "mM/mM"}, {"measurement": "25HC3S Solubility", "setting": "[1]; 1% (w/v) beta-CD (10 mg/mL), 10 mM phosphate pH 7.4, RT, one day", "value": 2177.4, "unit": "µg/mL"}, {"measurement": "25HC3S Solubility", "setting": "[1]; 5% (w/v) alpha-CD", "value": 0.065, "unit": "mM"}, {"measurement": "Complexation with CD", "setting": "[1]; 5% (w/v) alpha-CD", "value": "no"}, {"measurement": "Ratio of CD/25HC3S", "setting": "[1]; 5% (w/v) alpha-CD", "value": 791, "unit": "mM/mM"}, {"measurement": "25HC3S Solubility", "setting": "[1]; 5% (w/v) alpha-CD (50 mg/mL), 10 mM phosphate pH 7.4, RT, one day", "value": 32.9, "unit": "µg/mL"}, {"measurement": "25HC3S Solubility", "setting": "[1]; 5% (w/v) gamma-CD", "value": 1.118, "unit": "mM"}, {"measurement": "Complexation with CD", "setting": "[1]; 5% (w/v) gamma-CD", "value": "no"}, {"measurement": "Ratio of CD/25HC3S", "setting": "[1]; 5% (w/v) gamma-CD", "value": 34, "unit": "mM/mM"}, {"measurement": "25HC3S Solubility", "setting": "[1]; 5% (w/v) gamma-CD (50 mg/mL), 10 mM phosphate pH 7.4, RT, one day", "value": 564.4, "unit": "µg/mL"}, {"measurement": "repeated solubility of 25HC3S", "setting": "[1]; 5% (w/v) γ-CD", "value": 292.4, "unit": "µg/mL"}, {"measurement": "25HC3S Solubility", "setting": "[1]; 10% (w/v) alpha-CD", "value": 0.089, "unit": "mM"}, {"measurement": "Complexation with CD", "setting": "[1]; 10% (w/v) alpha-CD", "value": "no"}, {"measurement": "Ratio of CD/25HC3S", "setting": "[1]; 10% (w/v) alpha-CD", "value": 1155, "unit": "mM/mM"}, {"measurement": "25HC3S Solubility", "setting": "[1]; 10% (w/v) alpha-CD (100 mg/mL), 10 mM phosphate pH 7.4, RT, one day", "value": 45, "unit": "µg/mL"}, {"measurement": "25HC3S Solubility", "setting": "[1]; 10% (w/v) gamma-CD", "value": 0.301, "unit": "mM"}, {"measurement": "Complexation with CD", "setting": "[1]; 10% (w/v) gamma-CD", "value": "no"}, {"measurement": "Ratio of CD/25HC3S", "setting": "[1]; 10% (w/v) gamma-CD", "value": 256, "unit": "mM/mM"}, {"measurement": "25HC3S Solubility", "setting": "[1]; 10% (w/v) gamma-CD (100 mg/mL), 10 mM phosphate pH 7.4, RT, one day", "value": 152.1, "unit": "µg/mL"}, {"measurement": "repeated solubility of 25HC3S", "setting": "[1]; 10% (w/v) γ-CD", "value": 98.2, "unit": "µg/mL"}, {"measurement": "first time point with detectable drug levels", "setting": "[2]", "value": 0.5, "unit": "h"}, {"measurement": "mean pain intensity (0-10 numeric rating scale)", "setting": "[2]", "value": "0.8-3.5"}, {"measurement": "time by which pain had resolved after injection", "setting": "[2]", "value": "≤ 1", "unit": "h"}, {"measurement": "time of maximal pain intensity after injection", "setting": "[2]", "value": "5 to 10", "unit": "min"}, {"measurement": "pH of Filtrate Day 3", "setting": "[3]; 5°C, HPbCD 0 mg/mL", "value": 7.62}, {"measurement": "pH of Filtrate Day 3", "setting": "[3]; 5°C, HPbCD 50 mg/mL", "value": 7.70}, {"measurement": "Solubility at Day 3", "setting": "[3]; 5°C, HPbCD 50 mg/mL, phosphate buffer pH 7.6", "value": 9.32, "unit": "mg/mL"}, {"measurement": "pH of Filtrate Day 3", "setting": "[3]; 5°C, HPbCD 100 mg/mL", "value": 7.80}, {"measurement": "Solubility at Day 3", "setting": "[3]; 5°C, HPbCD 100 mg/mL, phosphate buffer pH 7.6", "value": 18.31, "unit": "mg/mL"}, {"measurement": "pH of Filtrate Day 3", "setting": "[3]; 5°C, HPbCD 250 mg/mL", "value": 8.06}, {"measurement": "Solubility at Day 3", "setting": "[3]; 5°C, HPbCD 250 mg/mL, phosphate buffer pH 7.6", "value": 42.80, "unit": "mg/mL"}, {"measurement": "pH of Filtrate Day 3", "setting": "[3]; 5°C, HPbCD 400 mg/mL", "value": 8.42}, {"measurement": "Solubility at Day 3", "setting": "[3]; 5°C, HPbCD 400 mg/mL, phosphate buffer pH 7.6", "value": 66.89, "unit": "mg/mL"}, {"measurement": "pH of Filtrate Day 3", "setting": "[3]; 15°C, HPbCD 0 mg/mL", "value": 7.59}, {"measurement": "pH of Filtrate Day 3", "setting": "[3]; 15°C, HPbCD 50 mg/mL", "value": 7.77}, {"measurement": "Solubility at Day 3", "setting": "[3]; 15°C, HPbCD 50 mg/mL, phosphate buffer pH 7.6", "value": 9.50, "unit": "mg/mL"}, {"measurement": "pH of Filtrate Day 3", "setting": "[3]; 15°C, HPbCD 100 mg/mL", "value": 7.98}, {"measurement": "Solubility at Day 3", "setting": "[3]; 15°C, HPbCD 100 mg/mL, phosphate buffer pH 7.6", "value": 18.51, "unit": "mg/mL"}, {"measurement": "pH of Filtrate Day 3", "setting": "[3]; 15°C, HPbCD 250 mg/mL", "value": 8.07}, {"measurement": "Solubility at Day 3", "setting": "[3]; 15°C, HPbCD 250 mg/mL, phosphate buffer pH 7.6", "value": 43.79, "unit": "mg/mL"}, {"measurement": "pH of Filtrate Day 3", "setting": "[3]; 15°C, HPbCD 400 mg/mL", "value": 8.26}, {"measurement": "Solubility at Day 3", "setting": "[3]; 15°C, HPbCD 400 mg/mL, phosphate buffer pH 7.6", "value": 68.10, "unit": "mg/mL"}, {"measurement": "Solubility at Day 3", "setting": "[3]; 25°C/60% RH, HPbCD 0 mg/mL, phosphate buffer pH 7.6, centrifuged sample", "value": "0.006^1 mg/mL"}, {"measurement": "pH of Filtrate Day 3", "setting": "[3]; 25°C/60% RH, HPbCD 50 mg/mL", "value": 7.65}, {"measurement": "Solubility at Day 3", "setting": "[3]; 25°C/60% RH, HPbCD 50 mg/mL, phosphate buffer pH 7.6", "value": 9.90, "unit": "mg/mL"}, {"measurement": "Solubility at Day 3", "setting": "[3]; 25°C/60% RH, HPbCD 100 mg/mL, phosphate buffer pH 7.6", "value": 18.33, "unit": "mg/mL"}, {"measurement": "pH of Filtrate Day 3", "setting": "[3]; 25°C/60% RH, HPbCD 100 mg/mL, supernatant", "value": 7.672}, {"measurement": "Solubility at Day 3", "setting": "[3]; 25°C/60% RH, HPbCD 250 mg/mL, phosphate buffer pH 7.6", "value": 42.37, "unit": "mg/mL"}, {"measurement": "Solubility at Day 3", "setting": "[3]; 25°C/60% RH, HPbCD 400 mg/mL, phosphate buffer pH 7.6", "value": 70.80, "unit": "mg/mL"}, {"measurement": "pH of Filtrate Day 3", "setting": "[3]; 25°C/60% RH, HPbCD 400 mg/mL, supernatant", "value": 8.342}, {"measurement": "temperature dependence of solubility in the presence of HPbCD", "setting": "[3]; between 5°C and 25°C", "value": "not temperature dependent"}]}
